Data reported in patent US20040044000A1, “Isoquinoline derivatives as matrix metalloproteinase inhibitors” (priority 2002, published 2004).
Read-outs that look alike come from different tables or passages of the source.

Legend:
Assay type in all cases: biochemical
[1] = biological target: MMP-3 catalytic domain (MMP-3CD) (Homo sapiens, UniProt P08254); test: Inhibition of MMP-3 catalytic domain (thiopeptolide substrate hydrolysis, MES pH 6.0)
Source text: (§1) The assays measure the amount by which a test compound reduces the hydrolysis of a thiopeptolide substrate catalyzed by a matrix metalloproteinase enzyme. Such assays are described in detail by Ye et al., in Biochemistry, 1992;31(45):11231-11235, which is incorporated herein by reference. One such assay is described below in Biological Method 1.
(§2) Thiopeptolide substrates show virtually no decomposition or hydrolysis at or below neutral pH in the absence of a matrix metalloproteinase enzyme. A typical thiopeptolide substrate commonly utilized for assays is Ac-Pro-Leu-Gly-thioester-Leu-Leu-Gly-OEt. A 100 μL assay mixture will contain 50 mM of N-2-hydroxyethylpiperazine-N′-2-ethanesulfonic acid buffer (“HEPES,” pH 7.0), 10 mM CaCl2, 100 μM thiopeptolide substrate, and 1 mM 5,5′-dithio-bis-(2-nitro-benzoic acid) (DTNB). The thiopeptolide substrate concentration may be varied, for example from 10 to 800 μM to obtain Km and Kcat values. The change in absorbance at 405 nm is monitored on a Thermo Max microplate reader (molecular Devices, Menlo Park, Calif.) at room temperature (22° C.). The calculation of the amount of hydrolysis of the thiopeptolide substrate is based on E412=13600 M^−1 cm^−1 for the DTNB-derived product 3-carboxy-4-nitrothiophenoxide. Assays are carried out with and without matrix metalloproteinase inhibitor compounds, and the amount of hydrolysis is compared for a determination of inhibitory activity of the test compounds.
(§3) Test compounds were evaluated at various concentrations in order to determine their respective IC50 values, the micromolar concentration of compound required to cause a 50% inhibition of catalytic activity of the respective enzyme.
It should be appreciated that the assay buffer used with MMP-3CD was 50 mM N-morpholinoethane sulfonate (“MES”) at pH 6.0 rather than the HEPES buffer at pH 7.0 described above.

[2] = biological target: T1, MMP-13 catalytic domain (MMP-13CD) (Homo sapiens, UniProt P45452); test: Inhibition of MMP-13 catalytic domain (thiopeptolide substrate hydrolysis)
T1 construct: use the catalytic domain of the MMP-13 enzyme, namely matrix metalloproteinase-13 catalytic domain (“MMP-13CD”), rather than the corresponding full-length enzyme
Source text: as §1
Some of the particular methods described below use the catalytic domain of the MMP-13 enzyme, namely matrix metalloproteinase-13 catalytic domain (“MMP-13CD”), rather than the corresponding full-length enzyme, MMP-13. It has been shown previously by Ye Qi-Zhuang, Hupe D., and Johnson L. (Current Medicinal Chemistry, 1996;3:407-418) that inhibitor activity against a catalytic domain of an MMP is predictive of the inhibitor activity against the respective full-length MMP enzyme.
as §2, §3

[3] = biological target: MMP-14 catalytic domain (MMP-14CD) (Homo sapiens, UniProt P50281); test: Inhibition of MMP-14 catalytic domain (thiopeptolide substrate hydrolysis)
Source text: as §1, §2, §3
(§4) The test described above for the inhibition of MMP-13 may also be adapted and used to determine the ability of the compounds of Formula I to inhibit the matrix metalloproteases MMP-1, MMP-2, MMP-3, MMP-7, MMP-9, MMP-12 and MMP-14.

[4] = biological target: T2, MMP-12 catalytic domain (MMP-12CD) (Homo sapiens, UniProt P39900); test: Inhibition of MMP-12 catalytic domain (thiopeptolide substrate hydrolysis)
T2 construct: MMP-3 catalytic domain, MMP-12 catalytic domain, MMP-14 catalytic domain, and MMP-17 catalytic domain
T2 sequence (P39900 106-263 limits assumed, species assumed): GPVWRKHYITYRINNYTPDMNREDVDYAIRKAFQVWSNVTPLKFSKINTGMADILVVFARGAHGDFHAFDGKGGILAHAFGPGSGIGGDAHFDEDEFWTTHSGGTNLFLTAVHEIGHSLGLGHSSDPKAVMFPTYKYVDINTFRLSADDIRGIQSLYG
Source text: as §1, §2, §3, §4

[5] = biological target: T3, MMP-17 catalytic domain (MMP-17CD) (Homo sapiens, UniProt Q9ULZ9); test: Inhibition of MMP-17 catalytic domain (thiopeptolide substrate hydrolysis)
T3 construct: MMP-3 catalytic domain, MMP-12 catalytic domain, MMP-14 catalytic domain, and MMP-17 catalytic domain
T3 sequence (Q9ULZ9 126-295 limits assumed): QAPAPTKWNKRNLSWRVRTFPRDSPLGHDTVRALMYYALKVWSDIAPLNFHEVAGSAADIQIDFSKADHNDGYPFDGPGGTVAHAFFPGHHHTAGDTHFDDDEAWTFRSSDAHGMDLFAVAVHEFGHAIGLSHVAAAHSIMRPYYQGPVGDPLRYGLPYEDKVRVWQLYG
Source text: as §1, §2, §3

[6] = Biological Table 1, read-out: MMP-13CD IC50
[7] = Biological Table 2, compounds of Example 66, read-out: MMP-13CD IC50

Sequence of MMP-3 catalytic domain (MMP-3CD) (P08254 100-272 limits assumed, species assumed): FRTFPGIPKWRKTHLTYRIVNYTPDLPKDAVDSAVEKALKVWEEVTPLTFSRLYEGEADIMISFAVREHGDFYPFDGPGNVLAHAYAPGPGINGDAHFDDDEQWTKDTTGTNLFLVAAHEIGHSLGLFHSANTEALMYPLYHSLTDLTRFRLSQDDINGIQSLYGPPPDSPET

Row | IC50 [2, 6] [µM] | IC50 [2, 7] [µM] | Compound | other results
1 | 0.24 | – | COc1ccc(CNC(=O)c2ccc3ccn(Cc4ccc(C#N)cc4)c(=O)c3c2)cc1 [Example 36, 2-(4-cyanobenzyl)-1-oxo-1,2-dihydro-isoquinoline-7-carboxylic Acid 4-methoxybenzylamide] | IC50 [1]: 19 µM; IC50 [3]: > 30 µM; IC50 [4]: 24 µM
2 | 0.095 | – | COc1cccc(CNC(=O)c2ccc3ccn(Cc4ccc(C#N)cc4)c(=O)c3c2)c1 [Example 37, 2-(4-cyanobenzyl)-1-oxo-1,2-dihydro-isoquinoline-7-carboxylic Acid 3-methoxybenzylamide] | IC50 [1]: 13 µM; IC50 [3]: > 30 µM; IC50 [4]: 13 µM
3 | 0.068 | – | O=C(NCc1ccc(-c2csnn2)cc1)c1ccc2ccn(Cc3ccc(-c4nn[nH]n4)cc3)c(=O)c2c1 [Example 64, 1-oxo-2-[4-(2H-tetrazol-5-yl)benzyl]-1,2-dihydroisoquinoline-7-carboxylic Acid 4-[1,2,3]thiadiazol-4-yl-benzylamide] | IC50 [1]: 16 µM; IC50 [5]: > 10 µM
4 | > 100 | – | O=C(NCc1cncnc1)c1ccc2ccn(CCOc3ccccc3)c(=O)c2c1 [Example 46, 1-oxo-2-(2-phenoxyethyl)-1,2-dihydroisoquinoline-7-carboxylic Acid (pyrimidin-5-ylmethyl)-amide] | –
5 | – | 33 | CCOC(Cn1ccc2ccc(C#CCc3ccccc3)cc2c1=O)OCC [Example 66r, 2-(2,2-Diethoxy-ethyl)-7-(3-phenyl-prop-1-ynyl)-2H-isoquinolin-1-one] | –
6 | – | 14 | CC(=O)OCCCCn1ccc2ccc(C#CCc3ccccc3)cc2c1=O [Example 66l, Acetic acid 4-[1-oxo-7-(3-phenyl-prop-1-ynyl)-1H-isoquinolin-2-yl]-butyl ester] | –
7 | – | 34 | COC(Cn1ccc2ccc(C#CCc3ccccc3)cc2c1=O)OC [Example 66h, 2-(2,2-Dimethoxy-ethyl)-7-(3-phenyl-prop-1-ynyl)-2H-isoquinolin-1-one] | –
8 | > 30 | – | Cc1ccc(CNC(=O)c2ccc3ccn(Cc4ccc(S(C)(=O)=O)cc4)c(=O)c3c2)cc1 [Example 55, 2-(4-methane-sulfonylbenzyl)-1-oxo-1,2-dihydro-isoquinoline-7-carboxylic Acid 4-methylbenzyl-amide] | –
9 | – | 8.7 | CCOC(=O)CCCCn1ccc2ccc(C#CCc3ccccc3)cc2c1=O [Example 66s, 5-[1-Oxo-7-(3-phenyl-prop-1-ynyl)-1H-isoquinolin-2-yl]-pentanoic acid ethyl ester] | –
10 | > 10 | – | Cc1ccc(CNC(=O)c2ccc3ccn(Cc4ccc(C#N)cc4)c(=O)c3c2)cc1 [Example 39, 2-(4-cyanobenzyl)-1-oxo-1,2-dihydro-isoquinoline-7-carboxylic Acid 4-methylbenzylamide] | –
11 | 55 | – | O=C(NCc1cccnc1)c1ccc2ccn(CCOc3ccccc3)c(=O)c2c1 [Example 42, 1-oxo-2-(2-phenoxyethyl)-1,2-dihydroisoquinoline-7-carboxylic Acid (pyridin-3-ylmethyl)amide] | –
12 | – | > 30 | COCCn1ccc2ccc(C#CCc3ccccc3)cc2c1=O [Example 66w, 2-(2-Methoxy-ethyl)-7-(3-phenyl-prop-1-ynyl)-2H-isoquinolin-1-one] | –
13 | – | 7.1 | O=c1c2cc(C#CCc3ccccc3)ccc2ccn1CCCCCCO [Example 66ac, 2-(6-Hydroxy-hexyl)-7-(3-phenyl-prop-1-ynyl)-2H-isoquinolin-1-one] | –
14 | – | – | O=C(O)c1ccc(Cn2ccc3ccc(C#CCn4ccnn4)cc3c2=O)cc1 [4-[1-oxo-7-(3-[1,2,3]triazol-1-ylprop-1-ynyl)-1H-isoquinolin-2-ylmethyl]benzoic acid] | IC50 ([2]; hMMP-13CD, text b731, read-out: IC50 with hMMP-13CD): > 50 µM
15 | – | 20 | CC(C)(CO)Cn1ccc2ccc(C#CCc3ccccc3)cc2c1=O [Example 66y, 2-(3-Hydroxy-2,2-dimethyl-propyl)-7-(3-phenyl-prop-1-ynyl)-2H-isoquinolin-1-one] | –
16 | – | 13 | O=c1c2cc(C#CCc3ccccc3)ccc2ccn1CC1CCCO1 (stereo not shown) [Example 66i, 7-(3-Phenyl-prop-1-ynyl)-2-(tetrahydro-furan-2-ylmethyl)-2H-isoquinolin-1-one] | –
17 | – | 95 | CS(=O)(=O)c1ccc(Cn2ccc3ccc(C#CCc4ccccc4)cc3c2=O)cc1 [Example 66o, 2-(4-Methanesulfonyl-benzyl)-7-(3-phenyl-prop-1-ynyl)-2H-isoquinolin-1-one] | –
18 | 49 | – | O=C(NCCn1cccc1)c1ccc2ccn(Cc3ccc(-c4nn[nH]n4)cc3)c(=O)c2c1 [Example 63, 1-oxo-2-[4-(2H-tetrazol-5-yl)benzyl]-1,2-dihydroisoquinoline-7-carboxylic Acid (2-pyrrol-1-yl-ethyl)amide] | –
19 | – | > 100 | O=c1c2cc(C#CCc3ccccc3)ccc2ccn1CC[S+]([O-])c1ccccc1 (stereo not shown) [Example 66z, 2-(2-Benzenesulfinyl-ethyl)-7-(3-phenyl-prop-1-ynyl)-2H-isoquinolin-1-one] | –
20 | > 10 | – | Cc1ccc(CNC(=O)c2ccc3ccn(CCOc4ccccc4)c(=O)c3c2)cc1 [Example 47, 1-oxo-2-(2-phenoxyethyl)-1,2-dihydroisoquinoline-7-carboxylic Acid 4-methylbenzamide] | –
21 | 1.3 | – | N#Cc1ccc(Cn2ccc3ccc(C(=O)NCc4ccncc4)cc3c2=O)cc1 [Example 33, 2-(4-cyanobenzyl)-1-oxo-1,2-dihydro-isoquinoline-7-carboxylic Acid (pyridin-4-ylmethyl)amide] | –
22 | 3.8 | – | COc1cc(CNC(=O)c2ccc3ccn(CCOc4ccccc4)c(=O)c3c2)ccn1 [Example 43, 1-oxo-2-(2-phenoxyethyl)-1,2-dihydroisoquinoline-7-carboxylic Acid (2-methoxypyridin-4-ylmethyl)amide] | –
23 | 12 | – | O=C(NCc1ccco1)c1ccc2ccn(Cc3ccc(-c4nn[nH]n4)cc3)c(=O)c2c1 [Example 62, 1-oxo-2-[4-(2H-tetrazol-5-yl)benzyl]-1,2-dihydroisoquinoline-7-carboxylic Acid (furan-2-ylmethyl)amide] | –
24 | 17 | – | N#Cc1ccc(Cn2ccc3ccc(C(=O)NCc4cncnc4)cc3c2=O)cc1 [Example 38, 2-(4-cyanobenzyl)-1-oxo-1,2-dihydro-isoquinoline-7-carboxylic Acid (pyrimidin-5-ylmethyl)amide] | –
25 | 0.4 | – | COc1cc(CNC(=O)c2ccc3ccn(Cc4ccc(C#N)cc4)c(=O)c3c2)ccn1 [Example 35, 2-(4-cyanobenzyl)-1-oxo-1,2-dihydro-isoquinoline-7-carboxylic Acid (2-methoxypyridin-4-ylmethyl)amide] | IC50 [1]: 7 µM; IC50 [3]: 81 µM; IC50 [4]: > 10 µM
26 | – | 12 | CCC(=O)Cn1ccc2ccc(C#CCc3ccccc3)cc2c1=O [Example 66ab, 2-(2-Oxo-butyl)-7-(3-phenyl-prop-1-ynyl)-2H-isoquinolin-1-one] | –
27 | – | 14 | O=c1c2cc(C#CCc3ccccc3)ccc2ccn1CCCC(F)(F)F [Example 66ai, 7-(3-Phenyl-prop-1-ynyl)-2-(4,4,4-trifluoro-butyl)-2H-isoquinolin-1-one] | –
28 | – | 11 | N#CCCCCn1ccc2ccc(C#CCc3ccccc3)cc2c1=O [Example 66j, 5-[1-Oxo-7-(3-phenyl-prop-1-ynyl)-1H-isoquinolin-2-yl]-pentanenitrile] | –
29 | 7.5 | – | COc1ccc(CNC(=O)c2ccc3ccn(CCOc4ccccc4)c(=O)c3c2)cc1 [Example 44, 1-oxo-2-(2-phenoxyethyl)-1,2-dihydroisoquinoline-7-carboxylic Acid 4-methoxybenzylamide] | –
